Results from ChEMBL document CHEMBL4613261, “Metabolic and Pharmaceutical Aspects of Fluorinated Compounds” (J Med Chem, 2020).

Assays:
[1] = Drug degradation in presence of 1% magnesium stearate and lactose monohydrate measured after preserving compound for 1 to 3 months at 40 degreeC by LC-MS/MS analysis; type: physicochemical; conditions: read-out: Drug degradation
[2] = Drug degradation assessed as 4-[[9-[(2-fluoro-4-pyridyl)methyl]-10-oxo-9-anthryl]methyl]-1H-pyridin-2-one metabolite formation by measuring relative abundance measured after preserving compound for 6 months at 40 degreeC by LC-MS/MS analysis; type: physicochemical; conditions: 4383 h
[3] = target: T1, Alanine racemase, biosynthetic (Escherichia coli K-12, UniProt P0A6B4); experiment: Substrate activity at Escherichia coli B alanine racemase assessed as (S)-6-amino-2-((E)-1-carboxy-1-((E)-(3-hydroxy-2-methyl-5-(phosphonooxymethyl)pyridin-4-yl)methyleneamino)prop-1-en-2-ylamino)hexanoic acid formation; type: ADME
[4] = target: T1, Alanine racemase, biosynthetic; experiment: Substrate activity at Escherichia coli B alanine racemase assessed as 2-oxobut-3-enoic acid formation; type: ADME
[5] = target: T1, Alanine racemase, biosynthetic; experiment: Substrate activity at Escherichia coli B alanine racemase assessed as (2S)-6-amino-2-(((Z)-1-carboxyallylideneamino)(3-hydroxy-2-methyl-5-(phosphonooxymethyl)pyridin-4-yl)methylamino)hexanoic acid adduct formation; type: ADME
[6] = Prodrug conversion in Sprague-Dawley rat assessed as acyclovir recovery in urine at 0.1 mmol/kg, po measured over 48 hrs by HPLC analysis; type: ADME, organism-based; conditions: in vivo
[7] = Drug metabolism assessed as first order rate constant for 6-formyltryptophan formation; type: physicochemical
[8] = Half life in rat at 10 mg/kg, iv; type: ADME, organism-based; conditions: in vivo
[9] = Drug recovery in bile duct-cannulated rhesus monkey feces at 10 mg/kg, po administered as single dose using 14C labelled compound measured after 96 hrs; type: ADME, organism-based, Macaca mulatta; conditions: in vivo
[10] = Volume of distribution at steady state in Sprague-Dawley rat at 0.5 mg/kg, iv administered as single dose measured after 0.083 to 48 hrs; type: ADME, organism-based; conditions: in vivo, read-out: Vdss
[11] = Drug recovery in bile duct-cannulated Sprague-Dawley rat feces at 10 mg/kg, po administered as single dose using 14C labelled compound measured after 48 hrs; type: ADME, organism-based; conditions: in vivo
[12] = Lipophilicity, logD of the compound; type: physicochemical; conditions: octanol/water
[13] = Volume of distribution at steady state in rhesus monkey at 0.1 mg/kg, iv administered as single dose measured after 0.083 to 48 hrs; type: ADME, organism-based, Macaca mulatta; conditions: in vivo, read-out: Vdss
[14] = Elimination half life in human at 25 to 1200 mg, po administered as suspension measured after 5 to 816 hrs by HPLC-MS/MS analysis; type: ADME, organism-based; conditions: in vivo, read-out: beta t1/2
[15] = Photodegradation of compound in deionized H20 at 10 uM by HPLC analysis; type: physicochemical; conditions: deionized water
[16] = Volume of distribution in human at 0.25 mg, iv administered as single dose measured up to 168 hrs; type: ADME, organism-based; conditions: in vivo
[17] = Oral bioavailability in human at 2 mg administered as single dose and measured up to 168 hrs; type: ADME, organism-based; conditions: in vivo
[18] = Half life in human at 0.25 mg, iv administered as single dose measured up to 168 hrs; type: ADME, organism-based; conditions: in vivo
[19] = Drug metabolism in human; type: ADME; conditions: read-out: Drug metabolism

T1 sequence (P0A6B4 whole entry): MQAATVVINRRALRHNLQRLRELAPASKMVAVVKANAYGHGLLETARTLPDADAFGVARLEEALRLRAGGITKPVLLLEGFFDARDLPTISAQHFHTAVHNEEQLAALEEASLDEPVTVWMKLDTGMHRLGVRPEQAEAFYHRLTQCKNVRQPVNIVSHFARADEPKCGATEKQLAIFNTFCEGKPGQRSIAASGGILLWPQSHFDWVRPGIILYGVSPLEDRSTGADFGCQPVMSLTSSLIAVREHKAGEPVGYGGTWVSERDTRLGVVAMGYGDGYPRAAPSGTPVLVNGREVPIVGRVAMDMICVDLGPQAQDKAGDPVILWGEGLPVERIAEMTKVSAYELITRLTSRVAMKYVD

## O=C1c2ccccc2C(Cc2ccnc(F)c2)(Cc2ccnc(F)c2)c2ccccc21
[1]
  degraded: < 0.1%
[2]
  Activity: 0.5%

## C=C=C(/N=C/c1c(COP(=O)(O)O)cnc(C)c1O)C(=O)O
[3]
  Activity: 12%
[4]
  Activity: 57%
[5]
  Activity: 31%

## CC(C)C(=O)OCCOCn1cnc2c(F)nc(N)nc21
[6]
  Drug recovery: 51%

## N[C@@H](Cc1c[nH]c2cc(C(F)F)ccc12)C(=O)O
[7]
  K: 0.0039 min⁻¹

## CCNC(C)Cc1cccc(SC(F)(F)F)c1 (racemic) [TIFLOREX]
[8]
  half-life: 7.4 h

## COc1cc(F)c(C(C)C)cc1-c1ccc(C(F)(F)F)cc1CN1C(=O)O[C@H](c2cc(C(F)(F)F)cc(C(F)(F)F)c2)[C@@H]1C [ANACETRAPIB]
[9]
  Drug recovery: 90%
[10]
  Vd: 1.1 L/kg
[11]
  Drug recovery: 80%
[12]
  logD: 7.1
[13]
  Vd: 0.3 L/kg

## Cc1cc(Nc2ccc(S(F)(F)(F)(F)F)cc2)n2nc(C(C)(F)F)nc2n1 [DSM-265]
[14]
  half-life: 86 to 118 h

## CNCCC(Oc1ccc(C(F)(F)F)cc1)c1ccccc1 (centres undefined) [FLUOXETINE]
[15]
  half-life at 10 µM: 55.2 h

## C[C@@H]1C[C@H]2[C@@H]3C[C@H](F)C4=CC(=O)C=C[C@]4(C)[C@@]3(F)[C@@H](O)C[C@]2(C)[C@@]1(OC(=O)c1ccco1)C(=O)SCF [FLUTICASONE FUROATE]
[16]
  Vd: 642 L
[17]
  bioavailability: 1.6%
[18]
  half-life: 15.3 h

## FCOC(C(F)(F)F)C(F)(F)F [SEVOFLURANE]
[19]
  metabolised: 2 to 5%
